One data set has as its system RNA. Nature of the data set: Destabilization of HBV RNA assessed as decrease in HBsAg production by cell-based assay. As to conditions: Hepatitis B virus.
Data set [1] concerns Hepatitis B virus. Put plainly: In vivo destabilization of HBV RNA in immuno-competent mouse model of chronic HBV assessed as log10 reduction in HBV DNA. It counts as functional.
Data set [2] in a line: Chemical stability of compound in PBS assessed as compound remaining measured after 6 days by HPLC UV analysis. The format is physicochemical. As to conditions: buffer, 144 h; time 6 day.
The nature of data set [3]: Oral bioavailability in CD-1 mouse at 10 mg/kg measured for 24 hrs by LC-MS/MS analysis. The format is ADME, organism-based. As to conditions: in vivo.
Data set [4] can be described thus: AUC (0 to 24 hrs) in Sprague-Dawley rat at 10 mg/kg, po measured for 24 hrs by LC-MS/MS analysis. The format is ADME, organism-based. Particulars: in vivo.
The nature of data set [5]: Ratio of total drug concentration in liver to plasma in Sprague-Dawley rat at 10 mg/kg, po measured for 24 hrs by LC-MS/MS analysis. It counts as ADME, organism-based. Particulars: liver and plasma.
A short description of data set [6]: Selectivity ratio of drug concentration in liver in Sprague-Dawley rat at 10 mg/kg, po measured for 24 hrs to EC90 for antiviral activity against HBV infected in human HepG2.2.15 cells assessed as reduction in HBsAg level. Particulars: in vivo. It counts as ADME, organism-based.
The next data set addresses CYP2C9 (Homo sapiens, UniProt P11712). Put plainly: Inhibition of CYP2C9 in human liver microsomes using diclofenac as substrate preincubated for 30 min followed by NADPH addition measured after 12 mins by LC-MS/MS analysis. The format is ADME, Microsome. Particulars: human, liver microsomes, probe diclofenac. In general terms: Liver microsomes are vesicles of endoplasmic reticulum, rich in cytochrome P450 enzymes.

Another data set addresses CYP2D6 (Homo sapiens, UniProt P10635). Put plainly: Inhibition of CYP2D6 in human liver microsomes using dextromethorphan as substrate preincubated for 30 min followed by NADPH addition measured after 12 mins by LC-MS/MS analysis. The format is ADME, Microsome. Particulars: human, liver microsomes, probe dextromethorphan.
In another data set the target is CYP3A4 (Homo sapiens, UniProt P08684). Nature of the data set: Inhibition of CYP3A4 in human liver microsomes using midazolam as substrate preincubated for 30 min followed by NADPH addition measured after 12 mins by LC-MS/MS analysis. The format is ADME, Microsome. As to conditions: human, liver microsomes, probe midazolam.
CYP3A4, sequence (P08684 whole entry): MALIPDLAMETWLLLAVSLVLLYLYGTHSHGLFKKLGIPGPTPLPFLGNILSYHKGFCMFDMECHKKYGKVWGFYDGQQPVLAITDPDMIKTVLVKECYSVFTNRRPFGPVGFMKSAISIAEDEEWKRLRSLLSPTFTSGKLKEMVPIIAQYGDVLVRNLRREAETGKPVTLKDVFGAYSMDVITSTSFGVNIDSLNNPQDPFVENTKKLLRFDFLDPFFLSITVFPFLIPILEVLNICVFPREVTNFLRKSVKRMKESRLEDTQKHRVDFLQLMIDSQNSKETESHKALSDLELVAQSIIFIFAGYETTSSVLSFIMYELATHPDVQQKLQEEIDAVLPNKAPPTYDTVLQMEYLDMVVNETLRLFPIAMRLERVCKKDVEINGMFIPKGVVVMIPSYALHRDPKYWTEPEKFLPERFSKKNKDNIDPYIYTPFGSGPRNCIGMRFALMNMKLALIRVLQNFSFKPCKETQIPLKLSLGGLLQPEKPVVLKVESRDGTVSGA
Data set [7] is described as follows: Ratio of drug concentration in liver to plasma of Sprague-Dawley rat at 10 mg/kg, po measured for 24 hrs by LC-MS/MS analysis. The format is ADME, organism-based. As to conditions: liver and plasma.
A short description of data set [8]: Ratio of drug concentration in heart to plasma of Sprague-Dawley rat at 10 mg/kg, po measured for 24 hrs by LC-MS/MS analysis. As to conditions: heart and plasma. It counts as ADME, organism-based.
Data set [9] can be described thus: Free Cmax in Beagle dog at 5 mg/kg, po qd measured after 91 days. It counts as ADME, organism-based, Canis lupus familiaris. Particulars: in vivo, 2184 h, time 91 day.
A short description of data set [10]: Total Cmax in Beagle dog at 15 mg/kg, po qd measured after 91 days. The format is ADME, organism-based, Canis lupus familiaris. As to conditions: in vivo, time 91 day.
Data set [11] in a line: Total Cmax in Beagle dog at 45 mg/kg, po qd measured after 91 days. As to conditions: in vivo, time 91 day. The format is ADME, organism-based, Canis lupus familiaris.
Data set [12] can be described thus: Free Cmax in Beagle dog at 45 mg/kg, po qd measured after 91 days. The format is ADME, organism-based, Canis lupus familiaris. Particulars: in vivo, 2184 h, time 91 day.
Data set [13] can be described thus: Free AUC (0 to 24 hrs) in Beagle dog at 45 mg/kg, po qd measured after 91 days. Particulars: in vivo, 2184 h, time 91 day. It counts as ADME, organism-based, Canis lupus familiaris.
A short description of data set [14]: Total Cmax in Beagle dog at 60 mg/kg, po qd measured after 91 days. As to conditions: in vivo, time 91 day. It counts as ADME, organism-based, Canis lupus familiaris.
A short description of data set [15]: Total AUC (0 to 24 hrs) in Beagle dog at 60 mg/kg, po qd measured after 91 days. The format is ADME, organism-based, Canis lupus familiaris. As to conditions: in vivo, time 91 day.
The nature of data set [16]: Toxicity in Beagle dog assessed as sporadic splayed limbs at 5 to 15 mg/kg, po qd measured after 38 days. The format is organism-based, Canis lupus familiaris. Particulars: in vivo, 912 h, dose 5-15 mg/kg, time 38 day.
Data set [17] can be described thus: Toxicity in Beagle dog assessed as splayed limbs at 60 mg/kg, po qd measured after 34 days. The format is organism-based, Canis lupus familiaris. As to conditions: in vivo, 816 h, time 34 day.
Data set [18] in a line: Toxicity in Beagle dog assessed as animal death at 60 mg/kg, po qd measured after 45 days. It counts as organism-based, Canis lupus familiaris. As to conditions: in vivo, 1080 h, time 45 day.
Data set [19] in a line: AUC (0 to 24 hrs) in CD-1 mouse at 0.2 mg/kg, po measured for 24 hrs by LC-MS/MS analysis. It counts as ADME, organism-based. Particulars: in vivo.
For another data set, the target named is Cytochrome P450 2C19 (Homo sapiens, UniProt P33261). Put plainly: Inhibition of CYP2C19 in human liver microsomes using S-mephenytoin as substrate preincubated for 30 min followed by NADPH addition measured after 12 mins by LC-MS/MS analysis. The format is ADME, Microsome.
Cytochrome P450 2C19, sequence (P33261 whole entry): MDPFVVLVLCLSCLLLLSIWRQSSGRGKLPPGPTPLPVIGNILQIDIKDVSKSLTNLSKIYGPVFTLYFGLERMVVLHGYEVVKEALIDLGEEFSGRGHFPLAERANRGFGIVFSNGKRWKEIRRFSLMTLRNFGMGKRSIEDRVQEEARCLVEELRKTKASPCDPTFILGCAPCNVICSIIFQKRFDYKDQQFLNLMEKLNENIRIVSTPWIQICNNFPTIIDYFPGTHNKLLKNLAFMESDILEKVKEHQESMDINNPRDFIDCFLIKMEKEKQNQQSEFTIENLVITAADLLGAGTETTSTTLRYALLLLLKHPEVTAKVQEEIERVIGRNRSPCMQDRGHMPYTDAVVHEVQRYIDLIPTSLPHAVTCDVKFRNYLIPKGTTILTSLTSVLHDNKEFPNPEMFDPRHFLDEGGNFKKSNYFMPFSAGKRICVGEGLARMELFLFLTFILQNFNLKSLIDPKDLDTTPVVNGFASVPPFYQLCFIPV
The nature of data set [20]: Ratio of drug concentration in heart to plasma of CD-1 mouse at 10 mg/kg, po measured for 24 hrs by LC-MS/MS analysis. The format is ADME, organism-based. As to conditions: heart and plasma.
Data set [21] in a line: Ratio of drug concentration in heart to plasma of Sprague-Dawley rat at 5 mg/kg, po measured for 24 hrs by LC-MS/MS analysis. The format is ADME, organism-based.
The test system of data set [22] is Hepatitis B virus. Nature of the data set: Antiviral activity against HBV infected in human primary hepatocytes assessed as reduction in HBsAg production pre-infected cells with virus followed by inoculum removal and subsequent addition of compounds with replenishment on days 4,7,9,11 and 14 post-infection measured after 16 days. As to conditions: Hepatocyte, 384 h. The format is functional, organism-based.

Data set [23] relates to Hepatitis B virus. Nature of the data set: Antiviral activity against HBV infected in human primary hepatocytes assessed as reduction in HBV DNA production pre-infected cells with virus followed by inoculum removal and subsequent addition of compounds with replenishment on days 4,7,9,11 and 14 post-infection measured after 16 days. The format is functional, organism-based. Particulars: Hepatocyte, 384 h.

The target in data set [24] is Voltage-gated inwardly rectifying potassium channel KCNH2 (Homo sapiens, UniProt Q12809). Put plainly: Inhibition of hERG. The format is toxicity. For orientation: hERG is a cardiac potassium channel; its block is linked to QT prolongation.
Voltage-gated inwardly rectifying potassium channel KCNH2, sequence (Q12809 whole entry): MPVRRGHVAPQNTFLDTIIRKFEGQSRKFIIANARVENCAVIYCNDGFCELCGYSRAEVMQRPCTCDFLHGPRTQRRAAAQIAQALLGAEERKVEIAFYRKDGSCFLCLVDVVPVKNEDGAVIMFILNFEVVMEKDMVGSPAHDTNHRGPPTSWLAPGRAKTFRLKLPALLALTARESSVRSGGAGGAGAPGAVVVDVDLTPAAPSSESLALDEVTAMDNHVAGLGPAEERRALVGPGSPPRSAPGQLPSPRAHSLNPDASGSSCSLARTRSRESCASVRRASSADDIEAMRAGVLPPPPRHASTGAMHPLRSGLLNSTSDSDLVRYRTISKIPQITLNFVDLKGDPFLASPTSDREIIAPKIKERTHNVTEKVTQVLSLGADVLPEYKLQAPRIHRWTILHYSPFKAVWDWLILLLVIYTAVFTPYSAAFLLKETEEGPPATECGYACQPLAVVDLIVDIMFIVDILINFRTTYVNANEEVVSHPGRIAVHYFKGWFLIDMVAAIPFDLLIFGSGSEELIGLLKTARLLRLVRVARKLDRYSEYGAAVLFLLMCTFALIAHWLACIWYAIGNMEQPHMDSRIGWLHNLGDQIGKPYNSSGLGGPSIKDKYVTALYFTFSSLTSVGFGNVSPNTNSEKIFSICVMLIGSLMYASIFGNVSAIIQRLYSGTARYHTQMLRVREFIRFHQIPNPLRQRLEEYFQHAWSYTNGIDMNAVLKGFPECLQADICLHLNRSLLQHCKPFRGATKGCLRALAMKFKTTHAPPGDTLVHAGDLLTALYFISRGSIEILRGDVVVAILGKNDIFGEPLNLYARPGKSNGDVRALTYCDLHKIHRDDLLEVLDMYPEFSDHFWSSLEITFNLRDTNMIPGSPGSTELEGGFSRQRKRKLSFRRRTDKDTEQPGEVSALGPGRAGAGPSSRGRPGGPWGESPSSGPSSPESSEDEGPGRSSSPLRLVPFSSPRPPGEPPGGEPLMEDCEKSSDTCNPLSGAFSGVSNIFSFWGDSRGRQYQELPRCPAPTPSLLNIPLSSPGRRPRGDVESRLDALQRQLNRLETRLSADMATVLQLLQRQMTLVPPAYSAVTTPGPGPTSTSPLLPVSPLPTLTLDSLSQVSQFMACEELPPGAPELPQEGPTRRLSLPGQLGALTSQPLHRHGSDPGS
Data set [25] is described as follows: Total Cmax in Beagle dog at 15 mg/kg, po qd measured after 60 days. It counts as ADME, organism-based, Canis lupus familiaris. Particulars: in vivo, time 60 day.
A short description of data set [26]: Total Cmax in Beagle dog at 45 mg/kg, po qd measured after 60 days. The format is ADME, organism-based, Canis lupus familiaris. As to conditions: in vivo, time 60 day.
Data set [27] is described as follows: Free Cmax in Beagle dog at 45 mg/kg, po qd measured after 60 days. The format is ADME, organism-based, Canis lupus familiaris. As to conditions: in vivo, 1440 h, time 60 day.
Data set [28] in a line: Total AUC (0 to 24 hrs) in Beagle dog at 45 mg/kg, po qd measured after 60 days. It counts as ADME, organism-based, Canis lupus familiaris. As to conditions: in vivo, time 60 day.
Data set [29] is described as follows: Toxicity in Beagle dog assessed as splayed limbs at 15 to 45 mg/kg, po qd measured after 60 days. The format is organism-based, Canis lupus familiaris. Particulars: in vivo, 1440 h, dose 15-45 mg/kg, time 60 day.
The nature of data set [30]: Toxicity in female Beagle dog assessed as change in body weight at 15 to 45 mg/kg, po qd measured for 60 days. It counts as organism-based, Canis lupus familiaris. Particulars: in vivo, 1440 h, dose 15-45 mg/kg, time 60 day.
Data set [31] can be described thus: Toxicity in female Beagle dog assessed as fold decrease in calcium level at 15 to 45 mg/kg, po qd measured for 60 days. It counts as organism-based, Canis lupus familiaris. As to conditions: in vivo, 1440 h, dose 15-45 mg/kg, time 60 day. Set-up: scale not given: the % may be the effect or the level left.
Data set [32] can be described thus: Toxicity in female Beagle dog assessed as fold decrease in cholesterol level at 15 to 45 mg/kg, po qd measured for 60 days. Set-up: scale not given: the % may be the effect or the level left. The format is organism-based, Canis lupus familiaris. Particulars: in vivo, 1440 h, dose 15-45 mg/kg, time 60 day.
The nature of data set [33]: Toxicity in female Beagle dog assessed as decrease in total protein level at 15 to 45 mg/kg, po qd measured for 60 days. It counts as organism-based, Canis lupus familiaris. Particulars: in vivo, 1440 h, dose 15-45 mg/kg, time 60 day. Set-up: scale not given: the % may be the effect or the level left.
The nature of data set [34]: Ratio of drug concentration in liver to plasma of Sprague-Dawley rat at 5 mg/kg, po measured for 24 hrs by LC-MS/MS analysis. The format is ADME, organism-based. Particulars: liver and plasma.

This is an account of results in ChEMBL document CHEMBL6127124, “Structure-Activity Relationships and Discovery of (S)-5-(tert-Butyl)-11-(difluoromethoxy)-9-methoxy-2-oxo-1,2,5,6-tetrahydropyrido[2',1':2,3]imidazo[4,5-h]quinoline-3-carboxylic Acid (AB-161), a Novel Orally Available and Liver-Centric HBV RNA Destabilizer” (J Med Chem, 2024).

CYP2D6, sequence (P10635 whole entry): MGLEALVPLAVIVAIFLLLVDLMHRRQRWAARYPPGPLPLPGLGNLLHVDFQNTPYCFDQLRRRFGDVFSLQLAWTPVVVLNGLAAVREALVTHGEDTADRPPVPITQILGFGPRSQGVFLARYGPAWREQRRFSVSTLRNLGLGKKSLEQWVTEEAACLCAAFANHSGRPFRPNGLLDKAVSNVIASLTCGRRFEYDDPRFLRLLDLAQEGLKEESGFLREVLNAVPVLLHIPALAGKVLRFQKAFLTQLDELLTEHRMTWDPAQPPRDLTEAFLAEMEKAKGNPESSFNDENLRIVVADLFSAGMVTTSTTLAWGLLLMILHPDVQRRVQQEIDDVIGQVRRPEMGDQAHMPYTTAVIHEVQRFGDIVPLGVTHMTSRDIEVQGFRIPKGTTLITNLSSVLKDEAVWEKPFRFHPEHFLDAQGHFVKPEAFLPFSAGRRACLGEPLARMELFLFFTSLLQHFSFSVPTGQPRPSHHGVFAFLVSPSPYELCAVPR
CYP2C9, sequence (P11712 whole entry): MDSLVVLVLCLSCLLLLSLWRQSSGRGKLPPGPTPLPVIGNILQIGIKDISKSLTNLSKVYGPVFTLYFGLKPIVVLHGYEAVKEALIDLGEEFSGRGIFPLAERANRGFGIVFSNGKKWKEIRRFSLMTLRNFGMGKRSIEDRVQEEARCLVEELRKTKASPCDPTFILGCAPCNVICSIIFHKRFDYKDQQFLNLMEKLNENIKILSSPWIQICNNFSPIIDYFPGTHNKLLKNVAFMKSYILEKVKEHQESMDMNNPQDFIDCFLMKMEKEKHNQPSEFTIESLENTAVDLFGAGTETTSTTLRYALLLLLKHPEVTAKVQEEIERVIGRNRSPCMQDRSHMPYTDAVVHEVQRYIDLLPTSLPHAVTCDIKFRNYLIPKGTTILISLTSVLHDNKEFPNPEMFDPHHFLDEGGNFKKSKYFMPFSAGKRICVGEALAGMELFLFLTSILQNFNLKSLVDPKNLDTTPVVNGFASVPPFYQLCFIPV

`COCCCOc1cc2c(nc1OC)-c1cc(=O)c(C(=O)O)cn1[C@H](C(C)C)C2`: in the data set with RNA, the EC50 is 0.0014 µM. In the data set with Hepatitis B virus [1], the “log(activity)” value is recorded as “<=0.94”. Moreover, the Stability entry in [2] is recorded as “Stable”. Also, the bioavailability in data set [3] amounted to 112%. Moreover, in data set [4], the AUC(0-t) at 24 h was found to be 13900 ng·h/mL. Moreover, the Kp at 24 h amounted to 3 in data set [5], 3.3 in data set [7] and 1.9 in [8]. The Ratio in data set [6] is reported as 5. Moreover, the IC50 at 12 min against CYP2C9, on CYP2D6 and against CYP3A4 was over 25 µM each time. The fCmax in data set [9] worked out at 1740 ng/mL; in data set [12], 10300 ng/mL. The peak concentration (Cmax) in data set [10] stood at 11500 ng/mL; in data set [11], 27800 ng/mL; in data set [14], 18700 ng/mL. This compound displayed a fAUC in data set [13] of 35300 ng·h/mL. The AUC at 2184 h in [15] worked out at 128000 ng·h/mL. Besides, the Activity result in [16], in data set [17] and in data set [18] was “Toxic” throughout.
With `COc1cc(OC(F)F)c2nc3c(n2c1)C[C@@H](C(C)(C)C)c1cc(C(=O)O)c(=O)[nH]c1-3`, the AUC(0-t) at 24 h in data set [19] was 148 ng·h/mL. Moreover, the half-maximal inhibitory concentration (IC50) on Cytochrome P450 2C19 is 21 µM; in [24], over 30 µM. Also, the partition ratio (Kp) at 24 h in data set [20] was 0.3. Also, the Ratio entry in [21] (in vivo, po, 5 mg/kg, 24 h, BLD = below limit of detection) was “Bld”. The EC50 with Hepatitis B virus [22] and in the data set with Hepatitis B virus [23] was 0.0085 µM each time. The values for the Cmax in data set [25] and in data set [26] were 13900 ng/mL and 17800 ng/mL, respectively. For the same compound, the fCmax in data set [27] was found to be 834 ng/mL. In data set [28], this compound showed an AUC at 1440 h of 65900 ng·h/mL. In addition, the Activity result in data set [29] is “Non-Toxic”; in data set [30] it was “Non-Toxic”; in data set [31] it was under 10%; in [32], under 30%; in [33] it was under 15%.
In data set [19], `CC(C)(C)[C@@H]1Cc2c(nc3c(C(F)(F)F)cc(C4CC4)cn23)-c2[nH]c(=O)c(C(=O)O)cc21` registered an AUC(0-t) at 24 h of 273 ng·h/mL. This compound gave an IC50 at Cytochrome P450 2C19 of 22 µM. The Kp at 24 h in data set [20] came to 0.2; in data set [34], 920; in [21] (Sprague-Dawley, heart and plasma), 0.2.

Broadly, the EC50 is the concentration needed to bring the measured effect to its halfway point. A word on the AUC(0-t): it is the area under the concentration-time curve up to a stated or last time point. As a reminder, the Kp is tissue or fluid exposure divided by exposure in the circulation. Usually IC50 stands for the point on the concentration scale where inhibition reaches its midpoint. The Cmax is the peak of the concentration-time curve. A word on the AUC: it is the area under the concentration-time curve, a measure of exposure.
